# Earlier results, collected in patent US20220175741A1, “COMPOSITIONS, DEVICES AND METHODS FOR TREATING AUTISM” (priority 2017, published 2022).
# What was measured:
# [1] = test system: child's autistic symptoms; conditions: one child; Rodakis, Microbial Ecology in Health & Disease 2015
# children with Autism = conditions: within a few weeks of treatment; Sandler et al, Journal of Child Neurology 2000
smiles,measurement,setting,value
CC1(C)S[C@@H]2[C@H](NC(=O)[C@H](N)c3ccc(O)cc3)C(=O)N2[C@H]1C(=O)O [amoxycillin],autistic symptoms,[1],reversed almost completely
CN[C@H](CC(C)C)C(=O)N[C@H]1C(=O)N[C@@H](CC(N)=O)C(=O)N[C@H]2C(=O)N[C@H]3C(=O)N[C@H](C(=O)N[C@H](C(=O)O)c4cc(O)cc(O)c4-c4cc3ccc4O)[C@H](O)c3ccc(c(Cl)c3)Oc3cc2cc(c3O[C@@H]2O[C@H](CO)[C@@H](O)[C@H](O)[C@H]2O[C@H]2C[C@](C)(N)[C@H](O)[C@H](C)O2)Oc2ccc(cc2Cl)[C@H]1O [vancomycin],behavioural changes of autistic children,children with Autism,reversal of behavioural changes and progress to normality
